Measured values published in PMC11375437, “Selective labelling of GBA2 in cells with fluorescent β-D-arabinofuranosyl cyclitol aziridines” (Chemical Science, 2024).

Target: T1, GBA2 (Homo sapiens, UniProt Q9HCG7)
T1 sequence (Q9HCG7 1-927): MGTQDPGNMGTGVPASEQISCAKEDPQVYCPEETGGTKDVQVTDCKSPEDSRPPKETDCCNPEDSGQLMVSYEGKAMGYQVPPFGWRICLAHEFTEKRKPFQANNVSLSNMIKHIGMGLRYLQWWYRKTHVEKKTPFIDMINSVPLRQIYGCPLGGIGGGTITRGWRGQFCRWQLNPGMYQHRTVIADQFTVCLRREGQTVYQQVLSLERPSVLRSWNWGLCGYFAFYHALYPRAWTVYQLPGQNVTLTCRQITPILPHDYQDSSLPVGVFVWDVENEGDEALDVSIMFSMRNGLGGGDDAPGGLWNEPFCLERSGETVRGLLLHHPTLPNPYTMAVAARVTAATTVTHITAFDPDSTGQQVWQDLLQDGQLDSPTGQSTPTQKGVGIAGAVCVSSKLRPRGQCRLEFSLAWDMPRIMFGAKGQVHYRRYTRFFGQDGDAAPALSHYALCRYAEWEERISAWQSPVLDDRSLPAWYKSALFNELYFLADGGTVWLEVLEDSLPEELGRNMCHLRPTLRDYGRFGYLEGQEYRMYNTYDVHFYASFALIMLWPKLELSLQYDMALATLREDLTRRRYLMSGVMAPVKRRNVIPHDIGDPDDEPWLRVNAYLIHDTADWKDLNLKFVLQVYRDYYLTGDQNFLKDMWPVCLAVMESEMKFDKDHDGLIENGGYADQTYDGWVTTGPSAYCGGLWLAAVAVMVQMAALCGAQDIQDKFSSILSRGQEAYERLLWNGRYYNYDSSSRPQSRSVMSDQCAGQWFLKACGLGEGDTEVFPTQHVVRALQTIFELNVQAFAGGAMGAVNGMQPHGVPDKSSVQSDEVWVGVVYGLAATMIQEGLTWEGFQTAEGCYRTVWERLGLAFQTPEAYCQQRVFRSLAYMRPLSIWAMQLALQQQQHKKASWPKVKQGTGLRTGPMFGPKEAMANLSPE
Experiment: In vitro ABP labelling of HEK293T lysates (ABPP, SDS-PAGE fluorescence scanning)
Assay type: biochemical
Set-up: expressed in transfected cells; host or cells: HEK293T GBA1/GBA2 KO (CRISPR/Cas9), GBA2 overexpressed
Conditions: for Concentration at which GBA2 is selectively labelled: 30 min, pH 6.0
Description: To this end, lysates of HEK293T cells containing all β-glucosidases (endogenous GBA1 with overexpressed GBA2 and GBA3) were treated with ABPs 3, 4, 5 or 7, followed by protein separation by SDS-PAGE and fluorescence scanning of the wet gel slabs. […] In contrast, the β-D-Araf aziridine ABPs 3 and 4 selectively labelled GBA2 at a concentration of 100 nM, while Cy5 tagged ABP 5 did so at 500 nM. The GBA2 selectivity of β-D-Araf cyclitol aziridines 3, 4 and 5 was confirmed in a mixture of a lysate of overexpressed GBA2 cells spiked with 3 ng rhGBA1 (Fig. 2C and ESI Fig. S3 ^†). In this experiment, the enzyme mixture was first incubated with β-D-Araf aziridine ABPs 3, 4, or 5 for 30 minutes, after which selective GBA1 ABP 10 [32] or 11 [30] was added to label the remaining active rhGBA1 active site. […] The pH and incubation time dependence labelling of GBA2 in HEK293T cells containing all three retaining β-glucosidases by β-D-Araf ABPs was next investigated (Fig. 2D, E and ESI Fig. S4 ^†). All ABPs selectively label GBA2 at a pH range of 4.5–7.5. Using 500 nM of ABP 4, GBA2 labelling occurred within a minute, and maximal labelling was observed after 20–30 minutes. […] Therefore, only a combined inactivation rate constant (kinact) and binding constant (KI) ratio (kinact/KI) could be measured. […] Importantly, no labelling of GBA1 or GBA3 was detected under varying pH and time conditions (ESI Fig. S4-2 ^†). […]
2.6 Visualization of ABP labelling towards β-glucosidases by activity-based protein profiling (ABPP) with SDS-PAGE
β-Glucosidases were labeled with excess of fluorescent ABPs at optimum conditions at 37 °C for 30 min (if not otherwise stated). The total sample volume was 20–40 μL with 0.5–1% DMSO concentration in appropriate pH McIlvaine buffer (150 mM). To label lysates containing all β-glucosidases (GBA1, GBA2 and GBA3), ABP 7 was used at pH 6.0 in McIlvaine buffer. To label lysate only containing GBA2 (GBA1/2 KO and GBA2 OE cell lysate), ABP (3-5, or 7) was incubated at pH 5.8 in McIlvaine buffer was used. To label rhGBA1 (Imiglucerase), ABP (10 or 11) at pH 5.2 in McIlvaine buffer supplemented with 0.1% (v/v) Triton X-100 and 0.2% (w/v) sodium taurocholate were used.
After incubation with the corresponding ABPs, proteins were denatured by boiling the samples with 5× Laemmli buffer (50% (v/v) 1 M Tris-HCl, pH 6.8, 50% (v/v) 100% glycerol, 10% (w/v) DTT, 10% (w/v) SDS, 0.01% (w/v) bromophenol blue, diluted into 1x for use) for 5 min at 98 °C, and separated by electrophoresis on 10% SDS-PAGE gels run at 90 V for 1.0-1.5 h. Wet slab-gels were imaged using the Typhoon FLA 9500 scanner (GE Healthcare, Eindhoven, The Netherlands) at λEX 473 nm and λEM ≥ 510 nm for BODIPY green fluorescence; at λEX 532 nm and λEM ≥ 575 nm for the BODIPY red fluorescence ; at λEX 635 nm and λEM ≥ 665 nm for Cy5 fluorescence. Afterwards, wet slab-gels were stained by Coomassie brilliant blue (CBB) G250 or R250 for total protein staining and scanned with a ChemiDocTM MP Imaging System (Bio-Rad, Veenendaal, The Netherlands).
2.7 Determination of kinetic parameters of ABP 4
The kinetic parameters of ABP 4 for GBA2 was determined by SDS-PAGE analysis in lysates of HEK293T GBA1/2 knock out GBA2 overexpression cells in which the relative intensity of the band on wet gel slabs (compared to labelling control) was used to calculate the inactivation parameters of GBA2. Lysates were made as previous cell lysis description. […]

[1] = HEK293T lysate, endogenous GBA1, overexpressed GBA2 and GBA3

## CN1/C(=C/C=C/C=C/C2=[N+](CCCCCC(=O)NCc3cn(CCCCCCCCN4[C@@H]5[C@H](CO)[C@@H](O)[C@H](O)[C@@H](O)[C@@H]54)nn3)c3ccccc3C2(C)C)C(C)(C)c2ccccc21 (some centres unmarked) [ABP 7]
[1]
  β-Glucosidases labelled in lysate: labelled all three β-glucosidases

## CC1=CC(C)=[N+]2C1=C(CCCCc1cn(CCCCCCCCN3[C@@H]4[C@H](CO)[C@@H](O)[C@H](O)[C@@H]43)nn1)c1c(C)cc(C)n1[B-]2(F)F (some centres unmarked) [ABP 3]
[1]
  Concentration at which GBA2 is selectively labelled: 100 nM

## CN1/C(=C/C=C/C=C/C2=[N+](CCCCCC(=O)NCc3cn(CCCCCCCCN4[C@@H]5[C@H](CO)[C@@H](O)[C@H](O)[C@@H]54)nn3)c3ccccc3C2(C)C)C(C)(C)c2ccccc21 (some centres unmarked) [ABP 5]
[1]
  Concentration at which GBA2 is selectively labelled: 500 nM

## COc1ccc(C2=[N+]3C(=C(CCCCc4cn(CCCCCCCCN5[C@@H]6[C@H](CO)[C@@H](O)[C@H](O)[C@@H]65)nn4)c4ccc(-c5ccc(OC)cc5)n4[B-]3(F)F)C=C2)cc1 (some centres unmarked) [ABP 4]
500 nM ABP, HEK293T lysate containing all three β-glucosidases
  Time to maximal GBA2 labelling: 20 to 30 min
[1]
  Concentration at which GBA2 is selectively labelled: 100 nM
